Earlier results, collected in article PMC4646457 (PLoS ONE, 2015).

Columns and labels:
[1] = system: plasma albumin; design: method as in printed; conditions: ref not given; cited from earlier work
[2] = design: method as in study EGF10002; conditions: ref study EGF10002, cited from earlier work
[3] = system: human CYP450 enzymes; conditions: also CYP3A5, lesser extent CYP2C19; ref EGF10027 protocol, CIB RM2000/00481/06; cited from earlier work
[4] = system: CYP3A; design: method as in EGF10027 protocol, CIB RM2000/00481/06; conditions: pregnane X receptor-screening assay; ref EGF10027 protocol, CIB RM2000/00481/06; cited from earlier work

SMILES: CS(=O)(=O)CCNCc1ccc(-c2ccc3ncnc(Nc4ccc(OCc5cccc(F)c5)c(Cl)c4)c3c2)o1 [lapatinib]
- binding to plasma albumin [1]: > 99%
- accumulation with once daily dosing ([2]; 100 and 175 mg doses): ~50%
- half-life ([2]; Day 1): 7 h
- metabolizing CYP enzymes [3]: metabolized predominantl y by CYP3A4
- CYP3A induction [4]: no abil it y to induce CYP3A
